Data: paper PMC7582725, “Suppression of hTAS2R16 Signaling by Umami Substances” (International Journal of Molecular Sciences, 2020)
Substitutions are numbered along the chain they refer to. Values joined by “and” are separate entries in the source; they are usually repeats but may differ in a detail not shown here. Identical values can stand only once. Counter-ions that a name gives are not always drawn. Like-named read-outs stand apart in the source and are kept apart here. Where a SMILES comes first, the peptide text is derived from it.

Assays:
hTAS2R16 [1] = target: T1, hTAS2R16 (Homo sapiens, UniProt Q9NYV7); assay: Ca2+ response of hTAS2R16-expressing HEK293T cells to bitter ligands in absence and presence of umami substances (Figure 1; fura-2 F340/F380 imaging / cell-based assay); conditions: for inhibition of Ca2+ response to arbutin: 5 mM arbutin; for inhibition of Ca2+ response to arbutin / inhibition of Ca2+ response to phenyl β-D-glucopyranoside: MSG 80 mM, IMP 20 mM, L-theanine 80 mM; for inhibition of Ca2+ response to arbutin / reduction of intracellular Ca2+ influx evoked by salicin / inhibition of Ca2+ response to phenyl β-D-glucopyranoside: Glu-Glu 6 mM, Gly-Gly 6 mM; for reduction of intracellular Ca2+ influx evoked by salicin: 10 mM salicin, MSG 10 and 80 mM, IMP 10 and 20 mM, L-theanine 10 and 80 mM, probenecid 0.1 and 0.3 mM; for Ca2+ response of cells expressing TAS2R16 on stimulation with ligand: Figure 1D,E
T1 construct: expressed in transfected cells; host or cells: HEK293T
T1 sequence (Q9NYV7 1-291): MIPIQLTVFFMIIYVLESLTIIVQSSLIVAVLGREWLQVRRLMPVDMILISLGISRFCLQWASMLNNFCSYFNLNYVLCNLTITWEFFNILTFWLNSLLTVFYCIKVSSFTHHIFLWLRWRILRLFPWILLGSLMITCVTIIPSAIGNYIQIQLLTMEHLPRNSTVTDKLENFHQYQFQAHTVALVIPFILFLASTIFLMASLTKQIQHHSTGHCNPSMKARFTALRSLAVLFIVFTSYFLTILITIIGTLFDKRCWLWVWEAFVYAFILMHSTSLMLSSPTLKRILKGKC
Procedure: We first verified if non-peptide umami substances affect the downstream signaling mechanism, such as changes in intracellular Ca^2+ of the human bitter taste receptor. […] The increase in fluorescence intensity ratio (F340/F380) with 10 mM salicin was expressed as 100. […] In addition to salicin, hTAS2R16 also recognizes bitter sugars such as phenyl β-D-glucopyranoside and arbutin, a glycosylated hydroquinone extracted from the bearberry plant in the genus Arctostaphylos.
(A) Chemical structures of tested compounds. Summarized data (B) and representative traces (C) showing responses of HEK293T cells co-expressing hTAS2R16 and Gα16gust44 to 10 mM salicin in the absence and presence of umami substances in a cell-based assay. (D,E) Representative ratiometric images of fura-2-loaded hTAS2R16-expressing cells in response to the other ligands, 5 mM arbutin (D) or phenyl β-D-glucopyranoside (E), in the presence of umami substances. The data were normalized as percentages to the maximal signal obtained with the ligands. The color scale indicates the F340/F380 ratio. Scale bar: 11.04 μm. Data are presented as means ± standard error of the mean (SEM) of at least three separate experiments. * p < 0.05, ** p < 0.01, and *** p < 0.001 vs. the 0 mM sample group by Student’s t-test.
The umami substances-induced changes in the cytosolic Ca^2+ concentration were measured using a FlexStation III microplate reader (Molecular Devices, Sunnyvale, CA, USA). HEK293T cells transfected with hTAS2R16 were seeded onto 96-well black-wall CellBind surface plates (Corning, NY, USA) for 18–24 h before use. […] The cells were incubated in the dark for 30 min at 37 °C, and then for 15 min at 27 °C in assay buffer consisting of Calcium-4 (FLIPR Calcium 4 Assay Kit, Molecular Devices) and probenecid or the umami compounds. […] The relative changes in cell Ca^2+ were plotted as ΔF/F0 on the y-axis, where ΔF is the change in Calcium-4 fluorescence intensity at each time point and F0 is the fluorescence intensity before treatment. The relative response induced by 10 mM salicin was assigned a value of 100.
Cells were seeded onto 96-well black-wall imaging plates (BD Falcon Labware) for 18–26 h prior to their use in an experiment. […] The cells were rinsed with the buffer, incubated in probenecid or sample for 30 min, and then treated with solution containing the ligand. The Fura-2AM-induced fluorescence intensity (excitation at 340 and 380 nm) was measured at emission wavelength of 510 nm using a computer-controlled filter changer (Lambda DG4; Sutter, San Rafael, CA, USA), an Andor Luca CCD camera (Andor Technology, Belfast, UK), and an inverted fluorescence microscope (IX-71; Olympus, Tokyo, Japan). Images were obtained at 3-s intervals and analyzed using MetaFluor software (Molecular Devices, Sunnyvale, CA, USA).

umami taste [2] = conditions: cited from earlier work
umami taste [3] = assay: Human sensory evaluation of umami taste (literature); format: in vivo; conditions: from cited thresholds
hTAS2R16 [4] = target: T1, hTAS2R16; assay: Cellular Ca2+ response, cell-based assay (Calcium-4, FlexStation III) in HEK293T cells co-expressing wild-type hTAS2R16 and G16αgust44; conditions: for synergistic effect with IMP on suppression of salicin response: 10 mM salicin, graded IMP below or at 10 mM; for mechanism of antagonism at hTAS2R16: from salicin concentration–response curves at graded antagonist concentrations
Procedure: (§1) HEK293T cells were purchased from American Type Culture Collection (ATCC; Manassas, VA, USA) and cultured as described previously. The plasmids hTAS2R16 and G16αgust44 were constructed as described previously. G16αgust44 and hTAS2R16 were cloned into a cytomegalovirus promoter-based vector and expressed constitutively. Point mutants of N96T and P44T on hTAS2R16 clone and DNA sequencings were performed by Macrogen (Geumcheon-gu, Seoul, Korea). The hTAS2R16 or point mutant expression plasmid was co-transfected with G16αgust44 expression plasmid (4:1) into HEK293T cells using Lipofectamine 2000 (Invitrogen, Carlsbad, CA, USA).
(§2) The umami substances-induced changes in the cytosolic Ca^2+ concentration were measured using a FlexStation III microplate reader (Molecular Devices, Sunnyvale, CA, USA). HEK293T cells transfected with hTAS2R16 were seeded onto 96-well black-wall CellBind surface plates (Corning, NY, USA) for 18–24 h before use. […] The cells were incubated in the dark for 30 min at 37 °C, and then for 15 min at 27 °C in assay buffer consisting of Calcium-4 (FLIPR Calcium 4 Assay Kit, Molecular Devices) and probenecid or the umami compounds. Following treatment, the fluorescence intensity (excitation, 486 nm; emission, 525 nm) of the cell was measured. The relative changes in cell Ca^2+ were plotted as ΔF/F0 on the y-axis, where ΔF is the change in Calcium-4 fluorescence intensity at each time point and F0 is the fluorescence intensity before treatment. The relative response induced by 10 mM salicin was assigned a value of 100.

hTAS2R16 P44T = target: T2, hTAS2R16 P44T (Homo sapiens, UniProt Q9NYV7, P44T); assay: Cellular Ca2+ response, cell-based assay in HEK293T cells expressing probenecid-insensitive mutant hTAS2R16 P44T
T2 construct: expressed in transfected cells; host or cells: HEK293T
T2 sequence (Q9NYV7 1-291 P44T): T1 sequence (Q9NYV7 1-291) with P44T
Procedure: as §1, §2

hTAS2R16 N96T = target: T3, hTAS2R16 N96T (Homo sapiens, UniProt Q9NYV7, N96T); assay: Cellular Ca2+ response, cell-based assay in HEK293T cells expressing probenecid-insensitive mutant hTAS2R16 N96T
T3 construct: expressed in transfected cells; host or cells: HEK293T
T3 sequence (Q9NYV7 1-291 N96T): T1 sequence (Q9NYV7 1-291) with N96T
Procedure: as §1, §2

[5] = IC50 in the presence of 10 mM salicin, Table 2, + IMP 0 mM, means ± SEM
[6] = IC50 of umami substances in the presence of 10 mM salicin, Figure 2B, pretreatment with sample, fixed 10 mM salicin, means ± SEM
[7] = Table 1, pretreatment with sample 10 mM
[8] = Table 1, pretreatment with sample 30 mM
[9] = Table 1, pretreatment with sample 80 mM
[10] = Table 1, pretreatment with sample 100 mM
[11] = Table 3, pretreatment with sample 80 mM

Gly-Gly
inhibition of Ca2+ response to arbutin (hTAS2R16 [1]): not
reduction of intracellular Ca2+ influx evoked by salicin (hTAS2R16 [1]): not
inhibition of Ca2+ response to phenyl β-D-glucopyranoside (hTAS2R16 [1]): not

CCNC(=O)CC[C@H](N)C(=O)O [L-Theanine, γ-glutamylethylamide]
detection threshold (umami taste [2]): 25 mM
detection threshold, times lower than that of MSG (umami taste [3]; L-theanine vs MSG): roughly 36 times
synergistic effect with IMP on suppression of salicin response (hTAS2R16 [4]): produce similar synergistic effects with IMP
IC50 (hTAS2R16 [4]; [5]): 77330 ± 50 µM
IC50 (hTAS2R16 [4]; [6]): 62000 µM and 61700 µM
Maximal Response of salicin (hTAS2R16 [4]; [7]): 0.53 ΔF/F0
Maximal Response of salicin (hTAS2R16 [4]; [8]): 0.50 ΔF/F0
Maximal Response of salicin (hTAS2R16 [4]; [9]): 0.43 ΔF/F0
Maximal Response of salicin (hTAS2R16 [4]; [10]): 0.31 ΔF/F0
Maximal Response of salicin, WT (hTAS2R16 [4]; [11]): 0.43 ΔF/F0
mechanism of antagonism at hTAS2R16 (hTAS2R16 [4]): partial insurmountable antagonists
attenuation of salicin response by pretreatment, WT receptor (hTAS2R16 [4]; salicin 0.003–30 mM, probenecid 0.3 mM, L-theanine 80 mM): significantly attenuated
inhibition of Ca2+ response to arbutin (hTAS2R16 [1]): significantly inhibited
reduction of intracellular Ca2+ influx evoked by salicin (hTAS2R16 [1]): concentration-dependent reduction
inhibition of Ca2+ response to phenyl β-D-glucopyranoside (hTAS2R16 [1]): significantly inhibited
Maximal Response of salicin, P44T (hTAS2R16 P44T; [11]): 0.56 ΔF/F0
attenuation of salicin response by pretreatment, P44T mutant (hTAS2R16 P44T; salicin 0.003–30 mM, probenecid 0.3 mM, MSG 80 mM, L-theanine 80 mM): not in cells expressing the two N96T and P44T mutant receptors
Maximal Response of salicin, N96T (hTAS2R16 N96T; [11]): 0.66 ΔF/F0
attenuation of salicin response by pretreatment, N96T mutant (hTAS2R16 N96T; salicin 0.003–30 mM, probenecid 0.3 mM, Glu-Glu 6 mM, L-theanine 80 mM): not in cells expressing the two N96T and P44T mutant receptors

N[C@@H](CCC(=O)O)C(=O)N[C@@H](CCC(=O)O)C(=O)O [Glu-Glu] (H-Glu-Glu-OH)
IC50 (hTAS2R16 [4]; [5]): 7250 ± 20 µM
IC50 (hTAS2R16 [4]; [6]): 8620 ± 30 µM

N[C@@H](CCC(=O)O)C(=O)O [MSG, L-glutamic acid monosodium salt hydrate]
detection threshold (umami taste [2]): 0.7 mM
umami taste intensity (relative) (umami taste [2]; enhancing umami taste intensity, MSG = 1.0): 1.0
umami taste threshold (umami taste [2]; human sensory evaluation studies): 30 mg%
umami taste threshold, times lower than Glu-Glu (umami taste [3]; MSG vs Glu-Glu): around 10 times
synergistic effect with IMP on suppression of salicin response (hTAS2R16 [4]): produce similar synergistic effects with IMP
IC50 (hTAS2R16 [4]; [5]): 64670 ± 40 µM
IC50 (hTAS2R16 [4]; [6]): 51000 µM and 51100 µM
Maximal Response of salicin (hTAS2R16 [4]; [7]): 0.55 ΔF/F0
Maximal Response of salicin (hTAS2R16 [4]; [8]): 0.54 ΔF/F0
Maximal Response of salicin (hTAS2R16 [4]; [9]): 0.49 ΔF/F0
Maximal Response of salicin (hTAS2R16 [4]; [10]): 0.47 ΔF/F0
Maximal Response of salicin, WT (hTAS2R16 [4]; [11]): 0.49 ΔF/F0
mechanism of antagonism at hTAS2R16 (hTAS2R16 [4]): surmountable antagonist
increase of the EC50 of salicin (hTAS2R16 [4]; sample at highest concentration, 100 mM): 8.5 fold
inhibition of Ca2+ response to arbutin (hTAS2R16 [1]): significantly inhibited
reduction of intracellular Ca2+ influx evoked by salicin (hTAS2R16 [1]): concentration-dependent reduction
inhibition of Ca2+ response to phenyl β-D-glucopyranoside (hTAS2R16 [1]): significantly inhibited
Maximal Response of salicin, P44T (hTAS2R16 P44T; [11]): 0.57 ΔF/F0
Maximal Response of salicin, N96T (hTAS2R16 N96T; [11]): 0.65 ΔF/F0

OCc1ccccc1O[C@@H]1O[C@H](CO)[C@@H](O)[C@H](O)[C@H]1O [Salicin]
Maximal Response of salicin (hTAS2R16 [4]; Table 1, salicin 0–30 mM, sample 0 mM): 0.51 ΔF/F0 and 0.54 ΔF/F0 and 0.56 ΔF/F0
EC50 (hTAS2R16 [4]; Table 1, salicin 0–30 mM, sample 0 mM, means ± SEM, read-out: EC50 of salicin): 1.04 mM (2×) and 920 µM and 890 µM and 900 µM
Maximal Response of salicin, WT (hTAS2R16 [4]; Table 3, sample 0 mM): 0.54 ΔF/F0 and 0.56 ΔF/F0 and 0.51 ΔF/F0
EC50 (hTAS2R16 [4]; Table 3, sample 0 mM, read-out: EC50 of salicin, WT): 960 µM and 900 µM and 1040 µM and 1070 µM
intracellular Ca2+ response induced by ligand, WT receptor (hTAS2R16 [4]; salicin 0.003–30 mM): induced intracellular Ca^2+ response
Maximal Response of salicin, P44T (hTAS2R16 P44T; Table 3, sample 0 mM): 0.61 ΔF/F0 and 0.59 ΔF/F0 and 0.56 ΔF/F0 and 0.62 ΔF/F0
EC50 (hTAS2R16 P44T; Table 3, sample 0 mM, read-out: EC50 of salicin, P44T): 690 µM and 750 µM and 640 µM and 620 µM and 680 µM
intracellular Ca2+ response induced by ligand, P44T mutant (hTAS2R16 P44T; salicin 0.003–30 mM): induced intracellular Ca^2+ response
Maximal Response of salicin, N96T (hTAS2R16 N96T; Table 3, sample 0 mM): 0.66 ΔF/F0 and 0.63 ΔF/F0 and 0.68 ΔF/F0 and 0.61 ΔF/F0
EC50 (hTAS2R16 N96T; Table 3, sample 0 mM, read-out: EC50 of salicin, N96T): 200 µM (2×) and 230 µM and 250 µM and 180 µM
intracellular Ca2+ response induced by ligand, N96T mutant (hTAS2R16 N96T; salicin 0.003–30 mM): induced intracellular Ca^2+ response

OC[C@H]1O[C@@H](Oc2ccc(O)cc2)[C@H](O)[C@@H](O)[C@@H]1O [arbutin]
Ca2+ response of cells expressing TAS2R16 on stimulation with ligand (hTAS2R16 [1]): increase in Ca^2+

OC[C@H]1O[C@@H](Oc2ccccc2)[C@H](O)[C@@H](O)[C@@H]1O [phenyl β-D-glucopyranoside]
Ca2+ response of cells expressing TAS2R16 on stimulation with ligand (hTAS2R16 [1]): increase in Ca^2+
